Experimental data from paper PMC7481197, “Uncovering the cytochrome P450-catalyzed methylenedioxy bridge formation in streptovaricins biosynthesis” (Nature Communications, 2020).

Experiments:
Assay type in all cases: biochemical
StvP2 [1] = molecular target: T1, StvP2 (Streptomyces spectabilis, UniProt A0A286SBY7); experiment: HPLC-DAD product formation, modified Hill equation fit; conditions: spinach Fdx/FdR, 4 mM NADPH, 50 mM Tris-HCl pH 7.5, 28 °C, 4 min; substrate inhibition, descending arm
T1 construct: N-terminal 6xHis tag, eight amino acids between tag and StvP2 removed, expressed in E. coli C43(DE3); heme-containing (Cys349 ligand); one molecule per asymmetric unit when substrate-free

StvP2 [2] = molecular target: T1, StvP2; experiment: as above; conditions: spinach Fdx/FdR, 4 mM NADPH, 50 mM Tris-HCl pH 7.5, 28 °C, 4 min; ascending arm of substrate-inhibition curve; read-out: Ks
StvM1 = molecular target: T2, StvM1 (Streptomyces spectabilis, UniProt A0A286SC47); experiment: LC-ESI-HRMS conversion of […] to […]; conditions: methyl donor; 100 μM damavaricin C, 50 mM Tris-HCl pH 7.5, 28 °C, 3 h
T2 construct: N-terminal 6xHis tag, pET28a(+) NdeI/EcoRI, expressed in E. coli BL21(DE3)
T2 sequence (A0A286SC47 1-202): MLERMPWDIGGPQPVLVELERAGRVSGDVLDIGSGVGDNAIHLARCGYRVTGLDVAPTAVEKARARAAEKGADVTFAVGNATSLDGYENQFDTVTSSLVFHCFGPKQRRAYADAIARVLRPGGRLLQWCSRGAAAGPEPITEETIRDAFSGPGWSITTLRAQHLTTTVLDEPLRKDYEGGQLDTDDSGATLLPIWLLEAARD

T1 sequence (A0A286SBY7 entry or part of it): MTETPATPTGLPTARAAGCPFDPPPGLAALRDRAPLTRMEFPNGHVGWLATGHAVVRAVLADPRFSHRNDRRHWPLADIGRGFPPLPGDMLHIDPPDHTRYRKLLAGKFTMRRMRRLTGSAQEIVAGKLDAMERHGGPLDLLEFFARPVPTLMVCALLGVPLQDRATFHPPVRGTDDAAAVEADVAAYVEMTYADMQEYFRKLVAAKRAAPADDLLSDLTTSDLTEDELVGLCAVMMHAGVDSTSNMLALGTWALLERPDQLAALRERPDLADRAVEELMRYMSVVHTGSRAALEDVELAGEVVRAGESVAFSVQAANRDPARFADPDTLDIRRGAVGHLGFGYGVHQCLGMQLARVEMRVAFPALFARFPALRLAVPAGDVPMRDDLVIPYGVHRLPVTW

Compound | Ki (StvP2 [1]) [µM] | Km (StvP2 [2]) [µM] | LC-ESI-HRMS conversion of 7 to 8 (StvM1)
6-methoxy-streptovaricin H [compound 4] | 399.35 ± 122.10 | 95.6 ± 30.8 | 
6-methoxy-streptovaricin D [compound 6] | 288.50 ± 122.60 | 67.4 ± 28.4 | 
C[S+](CC[C@H](N)C(=O)O)C[C@H]1O[C@@H](n2cnc3c(N)ncnc32)[C@H](O)[C@@H]1O (stereo partly shown) [SAM] |  |  | using SAM as methyl donor
COC(=O)[C@@H]1[C@H](O)[C@H](C)[C@H](O)[C@H](C)/C=C\C=C(/C)C(=O)Nc2c(C)c(OC(C)=O)c3c(c(OC)c(C)c(O)c3c2O)C(=O)/C(C)=C/[C@@](C)(O)[C@H](O)[C@@H](C)[C@H]1O [compound 2, 6-methoxy-streptovaricin C] | 367.30 ± 128.57 | 110 ± 46.2 | 
